According to ChEMBL document CHEMBL1201862, “PubChem BioAssay data set” (2004):
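Five compound concentrations were applied to cells in 96-well plates for 48 hours; endpoints were derived by simple linear interpolation of the resulting dose-response curve. GI50 marks 50% less growth.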 Active and inactive are the calls of the source. Rule as the data show it: active = GI50 up to about 1.1 µM and inactive = higher.

Experiments:
Experiment in all cases: NCI tumour cell line growth inhibition, 48 h
[1] = tested on: HCC 2998
[2] = tested on: SK-MEL-5
[3] = tested on: UO-31
[4] = tested on: HT-29
[5] = tested on: T47D
[6] = tested on: TK-10
[7] = tested on: SF-268
[8] = tested on: Hs-578T
[9] = tested on: A549
[10] = tested on: SR
[11] = tested on: U-251
[12] = tested on: MDA-MB-231
[13] = tested on: CCRF-CEM
[14] = tested on: HOP-62
[15] = tested on: SK-MEL-2
[16] = tested on: MCF7
[17] = tested on: LOX IMVI
[18] = tested on: UACC-62
[19] = tested on: Malme-3M
[20] = tested on: SK-MEL-28
[21] = tested on: SK-OV-3
[22] = tested on: IGROV-1
[23] = tested on: 786-0
[24] = tested on: NCI-H23
[25] = tested on: OVCAR-4
[26] = tested on: COLO 205
[27] = tested on: MDA-N
[28] = tested on: OVCAR-8
[29] = tested on: KM12
[30] = tested on: ACHN
[31] = tested on: A498
[32] = tested on: MOLT-4
[33] = tested on: RXF 393
[34] = tested on: SNB-19
[35] = tested on: M14
[36] = tested on: PC-3
[37] = tested on: NCI-H522
[38] = tested on: EKVX
[39] = tested on: HCT-15
[40] = tested on: SN12C
[41] = tested on: SF-295
[42] = tested on: BT-549
[43] = tested on: RPMI-8226
[44] = tested on: OVCAR-5
[45] = tested on: DU-145
[46] = tested on: SW-620
[47] = tested on: MDA-MB-435
[48] = tested on: NCI-H226
[49] = tested on: SNB-75
[50] = tested on: K562
[51] = tested on: NCI/ADR-RES
[52] = tested on: NCI-H460
[53] = tested on: SF-539
[54] = tested on: HL-60
[55] = tested on: OVCAR-3
[56] = tested on: HCT-116
[57] = tested on: HOP-92
[58] = tested on: CAKI-1
[59] = tested on: UACC-257

SMILES: Cn1c(S)nc(C(N)=O)c1N
- GI50 [1]: > 100 µM (inactive)
- GI50 [2]: > 100 µM (inactive)
- GI50 [3]: > 100 µM (inactive)
- GI50 [4]: > 100 µM (inactive)
- GI50 [5]: 72.4 µM (inactive)
- GI50 [6]: > 100 µM (inactive)
- GI50 [7]: > 100 µM (inactive)
- GI50 [8]: > 100 µM (inactive)
- GI50 [9]: > 100 µM (inactive)
- GI50 [10]: > 100 µM (inactive)
- GI50 [11]: > 100 µM (inactive)
- GI50 [12]: > 100 µM (inactive)
- GI50 [13]: > 100 µM (inactive)
- GI50 [14]: > 100 µM (inactive)
- GI50 [15]: > 100 µM (inactive)
- GI50 [16]: > 100 µM (inactive)
- GI50 [17]: > 100 µM (inactive)
- GI50 [18]: > 100 µM (inactive)
- GI50 [19]: > 100 µM (inactive)
- GI50 [20]: > 100 µM (inactive)
- GI50 [21]: > 100 µM (inactive)
- GI50 [22]: > 100 µM (inactive)
- GI50 [23]: > 100 µM (inactive)
- GI50 [24]: > 100 µM (inactive)
- GI50 [25]: > 100 µM (inactive)
- GI50 [26]: > 100 µM (inactive)
- GI50 [27]: > 100 µM (inactive)
- GI50 [28]: > 100 µM (inactive)
- GI50 [29]: > 100 µM (inactive)
- GI50 [30]: > 100 µM (inactive)
- GI50 [31]: > 100 µM (inactive)
- GI50 [32]: > 100 µM (inactive)
- GI50 [33]: > 100 µM (inactive)
- GI50 [34]: > 100 µM (inactive)
- GI50 [35]: > 100 µM (inactive)
- GI50 [36]: > 100 µM (inactive)
- GI50 [37]: > 100 µM (inactive)
- GI50 [38]: > 100 µM (inactive)
- GI50 [39]: > 100 µM
- GI50 [40]: > 100 µM (inactive)
- GI50 [41]: > 100 µM (inactive)
- GI50 [42]: > 100 µM (inactive)
- GI50 [43]: > 100 µM (inactive)
- GI50 [44]: > 100 µM (inactive)
- GI50 [45]: > 100 µM (inactive)
- GI50 [46]: > 100 µM (inactive)
- GI50 [47]: > 100 µM (inactive)
- GI50 [48]: > 100 µM (inactive)
- GI50 [49]: > 100 µM (inactive)
- GI50 [50]: > 100 µM (inactive)
- GI50 [51]: > 100 µM (inactive)
- GI50 [52]: > 100 µM (inactive)
- GI50 [53]: > 100 µM (inactive)
- GI50 [54]: > 100 µM (inactive)
- GI50 [55]: > 100 µM (inactive)

SMILES: CCN1/C(=C/C#C/C(C)=C\c2sc3ccccc3[n+]2CC)Sc2ccccc21
- GI50 [1]: 3.01 µM (inactive)
- GI50 [2]: 2.02 µM (inactive)
- GI50 [3]: 2.03 µM (inactive)
- GI50 [4]: 1.35 µM (inactive)
- GI50 [56]: 0.738 µM (active)
- GI50 [5]: 5.13 µM (inactive)
- GI50 [6]: 3.24 µM (inactive)
- GI50 [7]: 2.86 µM (inactive)
- GI50 [8]: 2.98 µM (inactive)
- GI50 [9]: 2.92 µM (inactive)
- GI50 [10]: 0.811 µM (active)
- GI50 [11]: 0.948 µM (active)
- GI50 [12]: 4.42 µM (inactive)
- GI50 [14]: 5.37 µM (inactive)
- GI50 [15]: 2.44 µM (inactive)
- GI50 [16]: 4.05 µM (inactive)
- GI50 [17]: 2.33 µM (inactive)
- GI50 [57]: 2 µM (inactive)
- GI50 [18]: 2.55 µM (inactive)
- GI50 [19]: 1.11 µM (active)
- GI50 [20]: 3.35 µM (inactive)
- GI50 [21]: 10.6 µM (inactive)
- GI50 [22]: 1.75 µM (inactive)
- GI50 [23]: 3.13 µM (inactive)
- GI50 [25]: 7.33 µM (inactive)
- GI50 [26]: 1.27 µM (inactive)
- GI50 [27]: 2.9 µM (inactive)
- GI50 [28]: 2.07 µM (inactive)
- GI50 [29]: 1.28 µM (inactive)
- GI50 [30]: 1.16 µM (inactive)
- GI50 [32]: 24.4 µM (inactive)
- GI50 [33]: 2.14 µM (inactive)
- GI50 [34]: 1.91 µM (inactive)
- GI50 [35]: 1.93 µM (inactive)
- GI50 [36]: 1.82 µM (inactive)
- GI50 [37]: 0.377 µM (active)
- GI50 [38]: 1.33 µM (inactive)
- GI50 [39]: 3.69 µM
- GI50 [40]: 4.35 µM (inactive)
- GI50 [41]: 2.94 µM (inactive)
- GI50 [42]: 0.558 µM (active)
- GI50 [43]: 0.222 µM (active)
- GI50 [44]: 3.44 µM (inactive)
- GI50 [45]: 3.42 µM (inactive)
- GI50 [46]: 0.593 µM (active)
- GI50 [47]: 2.36 µM (inactive)
- GI50 [48]: 0.631 µM (active)
- GI50 [58]: 2.39 µM (inactive)
- GI50 [49]: 1.53 µM (inactive)
- GI50 [50]: 0.269 µM (active)
- GI50 [51]: 3.53 µM (inactive)
- GI50 [52]: 2.53 µM (inactive)
- GI50 [53]: 2.9 µM (inactive)
- GI50 [54]: 0.482 µM (active)
- GI50 [59]: 1.32 µM (inactive)
